From patent publication US20240043427A1 (Gilead Sciences, Inc., priority 2020, published 2024)

Target: CD73 (Homo sapiens (Human), UniProt P21589)
Type: biochemical
Conditions: 1 mM NaH2PO4 in enzyme buffer, CD73 0.3 nM, AMP 15 uM

Sequence of CD73 (P21589 27-574): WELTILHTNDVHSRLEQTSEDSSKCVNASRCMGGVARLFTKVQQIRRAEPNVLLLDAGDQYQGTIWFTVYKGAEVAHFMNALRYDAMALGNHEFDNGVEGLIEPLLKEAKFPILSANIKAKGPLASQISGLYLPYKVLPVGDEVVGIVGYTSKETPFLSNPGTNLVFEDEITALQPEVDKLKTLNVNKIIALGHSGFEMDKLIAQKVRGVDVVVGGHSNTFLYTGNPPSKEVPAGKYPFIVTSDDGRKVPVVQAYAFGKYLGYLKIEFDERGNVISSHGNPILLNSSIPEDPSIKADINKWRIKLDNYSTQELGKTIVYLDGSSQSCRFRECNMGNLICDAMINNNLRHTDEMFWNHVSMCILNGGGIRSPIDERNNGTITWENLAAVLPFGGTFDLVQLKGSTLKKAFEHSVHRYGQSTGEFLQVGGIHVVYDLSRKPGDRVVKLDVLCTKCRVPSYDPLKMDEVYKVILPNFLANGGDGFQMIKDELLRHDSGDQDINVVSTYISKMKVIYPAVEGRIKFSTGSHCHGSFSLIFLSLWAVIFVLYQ

| Compound | IC50 |
| --- | --- |
| CC(C)(O)[C@H]1C[C@@H]1c1cc(-c2c[nH]c(=O)[nH]c2=O)nn2ccnc12 (racemic) [Example 463, 5-(8-((1S,2S)-2-(2-hydroxypropan-2-yl)cyclopropyl)imidazo[1,2-b]pyridazin-6-yl)pyrimidine-2,4(1H,3H)-dione] | 61.9 nM |
| O=c1[nH]cc(-c2cc([C@H]3C[C@@H]3c3ccc4c(F)nn(CC(F)(F)F)c4c3)c3ncc(Cl)n3n2)c(=O)[nH]1 (racemic) [Example 213, 5-[3-chloro-8-[(1S,2S)-2-[3-fluoro-1-(2,2,2-trifluoroethyl)indazol-6-yl]cyclopropyl]imidazo[1,2-b]pyridazin-6-yl]-1H-pyrimidine-2,4-dione] | 0.92 nM |
| O=c1[nH]cc(-c2cc([C@H]3C[C@@H]3c3ccnc(C(F)(F)F)c3)c3nccn3n2)c(=O)[nH]1 (racemic) [Example 160, 5-(8-((1S,2S)-2-(2-(trifluoromethyl)pyridin-4-yl)cyclopropyl)imidazo[1,2-b]pyridazin-6-yl)pyrimidine-2,4(1H,3H)-dione] | 15.4 nM |
| O=C(c1cccc([C@H]2C[C@@H]2c2cc(-c3c[nH]c(=O)[nH]c3=O)nn3ccnc23)c1)N1C[C@@H](F)[C@H](F)C1 (racemic) [Example 300, 5-(8-((1S,2S)-2-(3-((3R,4R)-3,4-difluoropyrrolidine-1-carbonyl)phenyl)cyclopropyl)imidazo[1,2-b]pyridazin-6-yl)pyrimidine-2,4(1H,3H)-dione] | 1.8 nM |
| N#Cc1ccc(F)c([C@H]2C[C@@H]2c2cc(-c3c[nH]c(=O)[nH]c3=O)nn3ccnc23)c1 (racemic) [Example 466, 3-((1S,2S)-2-(6-(2,4-dioxo-1,2,3,4-tetrahydropyrimidin-5-yl)imidazo[1,2-b]pyridazin-8-yl)cyclopropyl)-4-fluorobenzonitrile] | 3.47 nM |
| N#Cc1cncc([C@H]2C[C@@H]2c2cc(-c3c[nH]c(=O)[nH]c3=O)nn3ccnc23)c1 (racemic) [Example 311, 5-((1S,2S)-2-(6-(2,4-dioxo-1,2,3,4-tetrahydropyrimidin-5-yl)imidazo[1,2-b]pyridazin-8-yl)cyclopropyl)nicotinonitrile] | 4.72 nM |
| CCOC(=O)c1cn2nc(-c3c[nH]c(=O)[nH]c3=O)cc([C@H]3C[C@@H]3c3ccc(F)cc3)c2n1 (racemic) [Example 172, ethyl 6-(2,4-dioxo-1,2,3,4-tetrahydropyrimidin-5-yl)-8-((1S,2S)-2-(4-fluorophenyl)cyclopropyl)imidazo[1,2-b]pyridazine-2-carboxylate] | 13.9 nM |
| CN(C)C(=O)c1ccc([C@H]2C[C@@H]2c2cc(-c3c[nH]c(=O)[nH]c3=O)nn3ccnc23)cc1 (racemic) [Example 288, 4-((1S,2S)-2-(6-(2,4-dioxo-1,2,3,4-tetrahydropyrimidin-5-yl)imidazo[1,2-b]pyridazin-8-yl)cyclopropyl)-N,N-dimethylbenzamide] | 6.86 nM |
| N#Cc1ccc([C@H]2C[C@@H]2c2cc(-c3c[nH]c(=O)[nH]c3=O)nn3ccnc23)cc1C(F)(F)F (racemic) [Example 411, 4-((1S,2S)-2-(6-(2,4-dioxo-1,2,3,4-tetrahydropyrimidin-5-yl)imidazo[1,2-b]pyridazin-8-yl)cyclopropyl)-2-(trifluoromethyl)benzonitrile] | 6.11 nM |
| O=C1N(CC(F)(F)F)c2cc([C@H]3C[C@@H]3c3cc(-c4c[nH]c(=O)[nH]c4=O)nn4c(Cl)c(Cl)nc34)ccc2C12CC2 [Example 741, 5-(2,3-dichloro-8-((1S,2S)-2-(2′-oxo-1′-(2,2,2-trifluoroethyl)spiro[cyclopropane-1,3′-indolin]-6′-yl)cyclopropyl)imidazo[1,2-b]pyridazin-6-yl)pyrimidine-2,4(1H,3H)-dione] | 0.49 nM |
| CC1CN(C(=O)c2ccc([C@H]3C[C@@H]3c3cc(-c4c[nH]c(=O)[nH]c4=O)nn4ccnc34)cc2)C1 (racemic) [Example 290, 5-(8-((1S,2S)-2-(4-(3-methylazetidine-1-carbonyl)phenyl)cyclopropyl)imidazo[1,2-b]pyridazin-6-yl)pyrimidine-2,4(1H,3H)-dione] | 3.46 nM |
| O=c1[nH]cc(-c2cc([C@H]3C[C@@H]3c3ccccc3OC(F)(F)F)c3nccn3n2)c(=O)[nH]1 (racemic) [Example 309, 5-(8-((1S,2S)-2-(2-(trifluoromethoxy)phenyl)cyclopropyl)imidazo[1,2-b]pyridazin-6-yl)pyrimidine-2,4(1H,3H)-dione] | 42.3 nM |
| O=C1N(CC2(F)CC2)c2cc([C@H]3C[C@@H]3c3cc(-c4c[nH]c(=O)[nH]c4=O)nn4c(F)cnc34)ccc2C12CC2 (racemic) [Example 735, 5-(3-fluoro-8-((1S,2S)-2-(1′-((1-fluorocyclopropyl)methyl)-2′-oxospiro[cyclopropane-1,3′-indolin]-6′-yl)cyclopropyl)imidazo[1,2-b]pyridazin-6-yl)pyrimidine-2,4(1H,3H)-dione] | 2.94 nM |
| O=C(c1ccc([C@H]2C[C@@H]2c2cc(-c3c[nH]c(=O)[nH]c3=O)nn3ccnc23)cc1)N1CCC1 (racemic) [Example 289, 5-(8-((1S,2S)-2-(4-(azetidine-1-carbonyl)phenyl)cyclopropyl)imidazo[1,2-b]pyridazin-6-yl)pyrimidine-2,4(1H,3H)-dione] | 2.27 nM |
| N#Cc1ccc([C@H]2C[C@@H]2c2cc(-c3c[nH]c(=O)[nH]c3=O)nn3c(F)cnc23)nc1 (racemic) [Example 151, 6-((1S,2S)-2-(6-(2,4-dioxo-1,2,3,4-tetrahydropyrimidin-5-yl)-3-fluoroimidazo[1,2-b]pyridazin-8-yl)cyclopropyl)nicotinonitrile] | 1.36 nM |
| O=c1[nH]cc(-c2cc([C@H]3C[C@@H]3c3ccc(OC(F)(F)F)cn3)c3nccn3n2)c(=O)[nH]1 [Example 373, 5-(8-((1S,2S)-2-(5-(trifluoromethoxy)pyridin-2-yl)cyclopropyl)imidazo[1,2-b]pyridazin-6-yl)pyrimidine-2,4(1H,3H)-dione] | 2.56 nM |
| O=c1[nH]cc(-c2cc(N3CCC(CC(F)F)C3)c3nccn3n2)c(=O)[nH]1 (racemic) [Example 453, 5-(8-(3-(2,2-difluoroethyl)pyrrolidin-1-yl)imidazo[1,2-b]pyridazin-6-yl)pyrimidine-2,4(1H,3H)-dione] | 76 nM |
| O=C(c1cccc([C@H]2C[C@@H]2c2cc(-c3c[nH]c(=O)[nH]c3=O)nn3ccnc23)c1)N1CCC1 (racemic) [Example 294, 5-(8-((1S,2S)-2-(3-(azetidine-1-carbonyl)phenyl)cyclopropyl)imidazo[1,2-b]pyridazin-6-yl)pyrimidine-2,4(1H,3H)-dione] | 1.02 nM |
| O=C(c1ccc([C@H]2C[C@@H]2c2cc(-c3c[nH]c(=O)[nH]c3=O)nn3ccnc23)cc1)N1CC(F)(F)C1 (racemic) [Example 292, 5-(8-((1S,2S)-2-(4-(3,3-difluoroazetidine-1-carbonyl)phenyl)cyclopropyl)imidazo[1,2-b]pyridazin-6-yl)pyrimidine-2,4(1H,3H)-dione] | 2.08 nM |
| O=C(c1ccc([C@H]2C[C@@H]2c2cc(-c3c[nH]c(=O)[nH]c3=O)nn3ccnc23)cc1)N1C[C@@H](F)[C@H](F)C1 (racemic) [Example 299, 5-(8-((1S,2S)-2-(4-((3R,4R)-3,4-difluoropyrrolidine-1-carbonyl)phenyl)cyclopropyl)imidazo[1,2-b]pyridazin-6-yl)pyrimidine-2,4(1H,3H)-dione] | 7.85 nM |
| O=c1[nH]cc(-c2cc([C@H]3C[C@@H]3c3cnn(C(F)(F)F)c3)c3nccn3n2)c(=O)[nH]1 (racemic) [Example 366, 5-(8-((1S,2S)-2-(1-(trifluoromethyl)-1H-pyrazol-4-yl)cyclopropyl)imidazo[1,2-b]pyridazin-6-yl)pyrimidine-2,4(1H,3H)-dione] | 6.6 nM |
| O=c1[nH]cc(-c2cc([C@H]3C[C@@H]3c3ccc4ncsc4c3)c3nccn3n2)c(=O)[nH]1 (racemic) [Example 276, 5-(8-((1S,2S)-2-(benzo[d]thiazol-6-yl)cyclopropyl)imidazo[1,2-b]pyridazin-6-yl)pyrimidine-2,4(1H,3H)-dione] | 0.91 nM |
| N#Cc1ccc([C@H]2C[C@@H]2c2cc(-c3c[nH]c(=O)[nH]c3=O)nn3ccnc23)nc1 (racemic) [Example 155, 6-((1S,2S)-2-(6-(2,4-dioxo-1,2,3,4-tetrahydropyrimidin-5-yl)imidazo[1,2-b]pyridazin-8-yl)cyclopropyl)nicotinonitrile] | 2.04 nM |
| N#Cc1ccc([C@H]2C[C@@H]2c2cc(-c3c[nH]c(=O)[nH]c3=O)nn3ccnc23)cc1OC(F)(F)F (racemic) [Example 413, 4-((1S,2S)-2-(6-(2,4-dioxo-1,2,3,4-tetrahydropyrimidin-5-yl)imidazo[1,2-b]pyridazin-8-yl)cyclopropyl)-2-(trifluoromethoxy)benzonitrile] | 3.01 nM |
| O=c1[nH]cc(-c2cc([C@H]3C[C@@H]3c3cc4c(cn3)cnn4CC(F)(F)F)c3ncc(F)n3n2)c(=O)[nH]1 [Example 611, 5-(3-fluoro-8-((1S,2S)-2-(1-(2,2,2-trifluoroethyl)-1H-pyrazolo[4,3-c]pyridin-6-yl)cyclopropyl)imidazo[1,2-b]pyridazin-6-yl)pyrimidine-2,4(1H,3H)-dione] | 0.4 nM |
| CC1(C)CN(C(=O)c2ccc([C@H]3C[C@@H]3c3cc(-c4c[nH]c(=O)[nH]c4=O)nn4ccnc34)cc2)C1 (racemic) [Example 293, 5-(8-((1S,2S)-2-(4-(3,3-dimethylazetidine-1-carbonyl)phenyl)cyclopropyl)imidazo[1,2-b]pyridazin-6-yl)pyrimidine-2,4(1H,3H)-dione] | 4.75 nM |
| Cn1ncc2ccc([C@H]3C[C@@H]3c3cc(-c4c[nH]c(=O)[nH]c4=O)nn4ccnc34)cc21 (racemic) [Example 326, 5-(8-((1S,2S)-2-(1-methyl-1H-indazol-6-yl)cyclopropyl)imidazo[1,2-b]pyridazin-6-yl)pyrimidine-2,4(1H,3H)-dione] | 0.91 nM |
| O=c1[nH]cc(-c2cc([C@H]3C[C@@H]3c3ccc(OC(F)(F)F)cc3F)c3nccn3n2)c(=O)[nH]1 (racemic) [Example 280, 5-(8-((1S,2S)-2-(2-fluoro-4-(trifluoromethoxy)phenyl)cyclopropyl)imidazo[1,2-b]pyridazin-6-yl)pyrimidine-2,4(1H,3H)-dione] | 5.97 nM |
